Experimental data taken from patent publication US20200216432A1, “SULFONAMIDE DERIVATIVES AS STAT3 INHIBITORS FOR THE TREATMENT OF PROLIFERATIVE DISEASES” (King's College London, priority 2017, published 2020).

How the values were obtained:
[1] = target: unphosphorylated STAT3 monomer (uSTAT3) SH2 domain (Homo sapiens, UniProt P40763); test: Fluorescence polarisation assay for the inhibition of STAT3 dimerisation; assay type: binding; conditions: 350 nM uSTAT3, 10 nM FAM-pYLPQTV, 100 μM ligand; average of triplicate
unphosphorylated STAT3 monomer (uSTAT3) SH2 domain, sequence (P40763 whole entry, the tested form may be a part): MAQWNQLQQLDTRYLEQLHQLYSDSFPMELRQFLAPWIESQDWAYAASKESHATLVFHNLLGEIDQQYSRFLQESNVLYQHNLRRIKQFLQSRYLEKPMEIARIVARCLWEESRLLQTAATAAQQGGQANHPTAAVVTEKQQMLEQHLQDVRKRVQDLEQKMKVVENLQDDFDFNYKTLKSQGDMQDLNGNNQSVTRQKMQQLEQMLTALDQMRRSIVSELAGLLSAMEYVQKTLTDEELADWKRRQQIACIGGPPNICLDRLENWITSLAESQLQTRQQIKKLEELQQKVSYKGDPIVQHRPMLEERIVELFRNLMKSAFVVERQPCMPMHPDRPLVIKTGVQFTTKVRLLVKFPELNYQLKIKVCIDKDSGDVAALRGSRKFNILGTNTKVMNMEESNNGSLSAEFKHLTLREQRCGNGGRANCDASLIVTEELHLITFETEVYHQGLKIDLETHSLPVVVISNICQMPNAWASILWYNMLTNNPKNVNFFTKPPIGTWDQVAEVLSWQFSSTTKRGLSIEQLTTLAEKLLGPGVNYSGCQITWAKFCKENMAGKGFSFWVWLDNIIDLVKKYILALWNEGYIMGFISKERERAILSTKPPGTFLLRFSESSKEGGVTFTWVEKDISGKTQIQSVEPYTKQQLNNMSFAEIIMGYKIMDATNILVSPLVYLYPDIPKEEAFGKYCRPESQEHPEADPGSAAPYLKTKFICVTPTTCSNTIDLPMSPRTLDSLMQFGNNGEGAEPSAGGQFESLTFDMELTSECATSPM
Text: Fluorescence Polarisation Assay for the Inhibition of STAT3 Dimerisation
The compounds were subjected to an in vitro fluorescent polarisation (FP)-based primary PPI binding screen to assess their ability to inhibit STAT3 dimerisation by interacting with the SH2 domain. In this FP assay, the unphosphorylated STAT3 monomer (uSTAT3) and a surrogate peptide FAM-pYLPQTV were used to form a ‘pseudo-dimer’. The assay is based on the concept that the compounds were expected to displace the surrogate peptide from the uSTAT3 resulting in a fluorescent read out.
Specifically, for the FP assay, a black (CORNING™) 96 well plate was thoroughly washed with distilled water and allowed to dry. A 100 nM FAM-pYLPQTV working solution was prepared from 10 μM FAM-pYLPQTV stock solution (in DMSO) using PBS pH 7.4 Buffer. 10 μl FAM-pYLPQTV was added to 350 nM uSTAT3 protein, the final concentration of protein in each well, in 90 μl PBS buffer pH 7.4. The MP value of the surrogate dimer complex was measured using a fluorescent plate reader (Envision™, Perkin Elmer™, USA), which provided the base MP value. The inhibitor solution was then added to the well and the assay plate was placed on a shaker for 5 minutes. The MP value for each well was then measured again. A shift in fluorescent values was observed due to displacement of the fluorescently-labelled surrogate peptide by the inhibitors, and the average inhibition for each inhibitor could be calculated as described below:
Base MP value (X) for each well=MP value of Protein and Probe (350 nm STAT3+10 nM FAM-pYLPQTV)−MP value of free FAM-pYLPQTV
Inhibitor MP value (Y) for each well=MP value of Protein+Probe+Inhibitor (350 nm uSTAT3+10 nM FAM-pYLPQTV+2 μL Inhibitor)−MP value of free FAM-pYLPQTV with 2 μL DMSO
% inhibition by any ligand/peptide=(X−Y)/X*100
For comparison purpose, the % inhibition produced by 100 μM pYLKTKF was considered to be 100%, and the inhibition produced by different ligands was reported as relative to 100 μM pYLKTKF.
% Inhibition produced by 100 μM pYLKTKF=A
% Inhibition produced by 100 μM Ligand=B
Relative inhibition (%)=B/A*100
The experiment was carried out in triplicate, and average values were taken as the measure of PPI inhibition.

[2] = system: STAT3 and STAT3-dependent genes; test: RT-PCR expression of STAT3 and STAT3-dependent genes in LPS-stimulated MDA-MB-231 cells; assay type: cell-based, human; conditions: 25 μM, 8 hours, MDA-MB-231 stimulated with 500 μg/mL LPS
Procedure: Effect of Compounds of the Invention on Expression of STAT3 and STAT3-Dependent Genes.
To probe the STAT3-specific cytotoxicity of the mature ligands, the mRNA expression profile of STAT3 and some STAT3 target genes (i.e., bcl-2, cyclin D1, and fascin) were compared to the reference gene GAPDH using a RT-PCR assay. Initially, the MDA-MB-231 cells were stimulated with 500 μg/mL LPS for 24 hours at 37° C. Following this, the compounds were added at 25 μM to the cells and incubated for another 8 hours at 37° C. Finally, PCR was used to determine changes in the gene expression profiles between stimulated-untreated and stimulated-treated cells.

[3] = system: A4 (STAT3-null) cancer cell line; test: MTT cell viability assay, A4; assay type: cell-based
Text: (§1) MTT Cell viability assay with both MDA-MB-231 breast (STAT3-dependent) and A4 (STAT3-null) cancer cell lines.
(§2) After observing significant STAT3 dimerisation inhibitory activity in the preliminary FP assay, the target ligand and related fragments were progressed to an MTT cytotoxicity assay to evaluate in a STAT3-dependent tumour cell line (MDA MB 231, breast cancer) and a STAT3 null A4 cell line. It was anticipated that the compounds would show selective toxicity towards the STAT3-dependent MDA MB 231 cell line and would have lost activity in the STAT3 null A4 cell line if the mechanism of action was STAT3-mediated.
(§3) For each cell line, a total of 10,000 cells were seeded for 24 hours before addition of the inhibitors. The cells were grown in normal cell culture conditions at 37° C. under a 5% CO2 humidified atmosphere using an appropriate medium. The cell count was adjusted to 10^5 cells/ml, and 5,000-20,000 cells were added per well depending on the cell line. The cells were then incubated for 24 hours, and 1 μl aliquots of the inhibitors were added to the wells in triplicate. […] Absorbance was quantified by spectrophotometry at A=570 nm (Envision™ Plate Reader, PerkinElmer™, USA). IC50 values were calculated by a dose-response analysis using the Prism GraphPad Prism® software package.

[4] = system: MDA-MB-231 breast (STAT3-dependent) cancer cell line; test: MTT cell viability assay, MDA-MB-231; assay type: cell-based, human; conditions: for IC50: MTT, 48 hours exposure (table title); for Selectivity ratio: STAT3-null A4 versus STAT3-dependent MDA-MB-231
Text: as §1, §2, §3

[5] = 48 hours exposure (table title)

SMILES	inhibition at 100 µM [1] [%]	Bcl-2 mRNA expression (RT-PCR) [2]	STAT3 mRNA expression (RT-PCR) [2]	cyclin D1 mRNA expression (RT-PCR) [2]	fascin mRNA expression (RT-PCR) [2]	house-keeping gene GAPDH mRNA expression (RT-PCR) [2]	IC50 ([3]; exposure (table title)) [µM]	STAT1 mRNA expression (RT-PCR) [2]	% Inhibition [1] [%]	IC50 [3, 5] [µM]	IC50 [4] [µM]	IC50 ([4]; Homo sapiens, MDA-MB-231, 48 h) [µM]	Selectivity ratio [4]
COC(=O)c1ccc(N(C)S(=O)(=O)c2cc(C(=O)NCc3ccc(CN4CCCCC4)cc3)sc2-c2ccc(N3CCN(C)CC3)nc2)cc1 [Compound 3, methyl 4-((N-methyl-2-(6-(4-methylpiperazin-1-yl)pyridin-3-yl)-5-((4-(piperidin-1-ylmethyl)benzyl)carbamoyl)thiophene)-3-sulfonamido)benzoate]	> 50	down-regulated	notable downregulation	down-regulated	down-regulated	without showing any effect	65.1	–	–	–	–	–	–
COC(=O)c1ccc(N(C)S(=O)(=O)c2cc(C(=O)NCc3ccc(CN4CCCCC4)cc3)sc2-c2ccc(C(=O)N3CCOCC3)cc2)cc1 [Compound 4, methyl 4-((N-methyl-2-(4-(morpholine-4-carbonyl)phenyl)-5-((4-(piperidin-1-ylmethyl)benzyl)carbamoyl)thiophene)-3-sulfonamido)benzoate]	> 50	more pronounced	notable downregulation	relatively low compared to 3	relatively low compared to 3	without showing any effect	77.4	did not downregulate	–	–	–	–	–
COC(=O)c1ccc(N(C)S(=O)(=O)c2cc(C(=O)Nc3ccc(OCCN4CCOCC4)cc3)sc2-c2ccc(N3CCCCC3)cc2)cc1 [Compound 10, methyl 4-((N-methyl-5-((4-(2-morpholinoethoxy)phenyl)carbamoyl)-2-(4-(piperidin-1-yl)phenyl)thiophene)-3-sulfonamido)benzoate]	> 50	very strong down-regulation	significantly downregulated	marked	marked	did not show any effect	67.5	did not show any effect	–	–	–	–	–
COC(=O)c1ccc(N(C)S(=O)(=O)c2cc(C(=O)Nc3ccc(OCCN4CCOCC4)cc3)sc2Br)cc1 [Compound 29, methyl 4-((2-bromo-N-methyl-5-((4-(2-morpholinoethoxy)phenyl)carbamoyl)thiophene)-3-sulfonamido)benzoate]	–	–	–	–	–	–	–	–	42.90	53.6	5.8	–	–
COC(=O)c1ccc(N(C)S(=O)(=O)c2cc(C(=O)Nc3ccc(N4CCOCC4)nc3)sc2Br)cc1 [Compound 30, methyl 4-((2-bromo-N-methyl-5-((6-morpholinopyridin-3-yl)carbamoyl)thiophene)-3-sulfonamido)benzoate]	19.5	–	–	–	–	–	82.3	–	–	–	–	24.6	3.34
COC(=O)c1ccc(N(C)S(=O)(=O)c2cc(C(=O)NCc3ccc(CN4CCOCC4)cc3)sc2Br)cc1 [Compound 31, methyl 4-((2-bromo-N-methyl-5-((4-(morpholinomethyl)benzyl)carbamoyl)thiophene)-3-sulfonamido)benzoate]	27.3	–	–	–	–	–	24.7	–	–	–	–	32.5	0.76
COC(=O)c1ccc(N(C)S(=O)(=O)c2cc(C(=O)NCc3ccc(N4CCN(C)CC4)cc3)sc2Br)cc1 [Compound 32, methyl 4-((2-bromo-N-methyl-5-((4-(4-methylpiperazin-1-yl)benzyl)carbamoyl)thiophene)-3-sulfonamido)benzoate]	6.18	–	–	–	–	–	74.5	–	–	–	–	7.65	9.73
COC(=O)c1ccc(N(C)S(=O)(=O)c2cc(C(=O)NCc3ccc(CN4CCCCC4)cc3)sc2Br)cc1 [Compound 33, methyl 4-((2-bromo-N-methyl-5-((4-(piperidin-1-ylmethyl)benzyl)carbamoyl)thiophene)-3-sulfonamido)benzoate]	42.3	–	–	–	–	–	94.2	–	–	–	–	4.45	21.16
COC(=O)c1ccc(N(C)S(=O)(=O)c2cc(C(=O)Nc3ccc(Cc4nc5cc(C)ccc5[nH]4)cc3)sc2Br)cc1 [Compound 34, methyl 4-((2-bromo-N-methyl-5-((4-((5-methyl-1H-benzo[d]imidazol-2-yl)methyl)phenyl)carbamoyl)thiophene)-3-sulfonamido)benzoate]	35.4	–	–	–	–	–	65.4	–	–	–	–	7.32	8.93
COC(=O)c1ccc(N(C)S(=O)(=O)c2cc(C(=O)Nc3ccc4[nH]c(Cc5ccccc5)nc4c3)sc2Br)cc1 [Compound 35, methyl 4-((5-((2-benzyl-1H-benzo[d]imidazol-5-yl)carbamoyl)-2-bromo-N-methylthiophene)-3-sulfonamido)benzoate]	33.3	–	–	–	–	–	38.7	–	–	–	–	4.45	8.69
COC(=O)c1ccc(N(C)S(=O)(=O)c2cc(C(=O)Nc3ccc4c(ccn4C)c3)sc2Br)cc1 [Compound 36, methyl 4-((2-bromo-N-methyl-5-((1-methyl-1H-indol-5-yl)carbamoyl)thiophene)-3-sulfonamido)benzoate]	29.1	–	–	–	–	–	45.3	–	–	–	–	7.8	5.80
COC(=O)c1ccc(N(C)S(=O)(=O)c2cc(C(=O)NCc3ccc(CN4CCCC4)cc3)sc2Br)cc1 [Compound 37, methyl 4-((2-bromo-N-methyl-5-((4-(pyrrolidin-1-ylmethyl)benzyl)carbamoyl)thiophene)-3-sulfonamido)benzoate]	30.2	–	–	–	–	–	55.6	–	–	–	–	5.64	9.85
COC(=O)c1ccc(N(C)S(=O)(=O)c2cc(C(=O)Nc3cccc(-c4csc(C)n4)c3)sc2Br)cc1 [Compound 38, methyl 4-((2-bromo-N-methyl-5-((3-(2-methylthiazol-4-yl)phenyl)carbamoyl)thiophene)-3-sulfonamido)benzoate]	29.2	–	–	–	–	–	54.1	–	–	–	–	11.6	4.67
COC(=O)c1ccc(N(C)S(=O)(=O)c2cc(C(=O)Nc3ccc(N4CCN(C(=O)c5cc6ccccc6o5)CC4)cc3)sc2Br)cc1 [Compound 39, methyl 4-((5-((4-(4-(benzofuran-2-carbonyl)piperazin-1-yl)phenyl)carbamoyl)-2-bromo-N-methylthiophene)-3-sulfonamido)benzoate]	–	–	–	–	–	–	–	–	36.44	43.2	4.8	–	–
C[C@@H]1CC(=O)c2c(ccc3c2C(=O)c2cccc(O)c2C3=O)C1 [STA-21, reference compound]	32.3	–	–	–	–	–	65.5	–	–	–	–	18.7	3.5
